Values quoted from earlier work as cited in patent US20260325503A1, “LONG-ACTING FORMULATIONS” (JANSSEN PHARMACEUTICA NV, priority 2022, published 2026).

Assays:
[1] = test system: mycobacterial ATP synthase; conditions: mycobacterial ATP synthase versus eukaryotic mitochondrial ATP synthase
[2] = test system: M. tuberculosis
[3] = test system: Mycobacterium leprae

## COc1nc2ccc(Br)cc2cc1[C@@H](c1ccccc1)[C@@](O)(CCN(C)C)c1cccc2ccccc12 [bedaquiline]
[1]
  selectivity index: more than 20000
[2]
  minimal dose killing 99% of bacilli: 30 mg/kg/wk
[3]; M. lepra
  minimal dose killing 99% of bacilli: < 5.0 mg/kg/wk
[3]; mycobacterium leprae, mice
  Bactericidal activity (in words): bactericidal
